Results from ChEMBL document CHEMBL1201862, “PubChem BioAssay data set” (2004).
Active and inactive are the calls of the source.

Legend:
[1] = biological target: DNA dC->dU-editing enzyme APOBEC-3A (Homo sapiens, UniProt P31941); test: A3A deaminase inhibition for selectivity – biochemical, dose response (AID 504722); format: functional
[2] = biological target: Large T antigen (Simian virus 40, UniProt P03070); format: functional, Betapolyomavirus macacae;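 also: Confirmatory-stage PubChem screen for compounds that inhibit SV40 T antigen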
[3] = biological target: DNA dC->dU-editing enzyme APOBEC-3G (Homo sapiens, UniProt Q9HC16); test: Dose Response confirmation of small molecule APOBEC3G DNA Deaminase Inhibitors via a fluorescence-based single-stranded DNA deaminase assay. [Related pubchem assays (depositor defined):AID493012, AID493028]; format: functional
[4] = test system: Escherichia coli; test: microbe, parasite or virus in culture
[5] = biological target: T1, Leucine aminopeptidase (Plasmodium falciparum 3D7, UniProt Q8IL11); test: P. falciparum M17LAP inhibitors, primary screen, biochemical, fluorogenic H-Leu-NHMec substrate, 1536-well (AID 1619); format: functional
T1 sequence (Q8IL11 whole entry): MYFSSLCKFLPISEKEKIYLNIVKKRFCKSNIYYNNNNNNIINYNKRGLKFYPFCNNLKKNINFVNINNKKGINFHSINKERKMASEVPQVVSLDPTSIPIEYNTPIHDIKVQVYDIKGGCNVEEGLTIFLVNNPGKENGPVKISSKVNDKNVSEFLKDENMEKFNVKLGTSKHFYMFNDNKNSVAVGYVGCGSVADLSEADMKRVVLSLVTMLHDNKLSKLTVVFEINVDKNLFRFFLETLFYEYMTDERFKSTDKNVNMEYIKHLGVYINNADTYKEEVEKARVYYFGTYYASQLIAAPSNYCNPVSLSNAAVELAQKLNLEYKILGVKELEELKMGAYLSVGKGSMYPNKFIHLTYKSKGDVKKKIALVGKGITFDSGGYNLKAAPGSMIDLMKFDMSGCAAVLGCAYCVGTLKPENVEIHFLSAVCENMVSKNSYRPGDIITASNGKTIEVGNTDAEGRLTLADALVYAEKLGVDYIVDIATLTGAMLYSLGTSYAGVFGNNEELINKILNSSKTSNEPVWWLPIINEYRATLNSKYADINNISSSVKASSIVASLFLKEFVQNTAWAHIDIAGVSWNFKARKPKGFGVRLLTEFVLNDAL

[6] = HIV-1 Vif–A3G interaction blockers – biochemical, TR-FRET, GST-Vif 1-94, biotin-A3G peptide, dose response retest, primary screen (AID 1117319); format: functional;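 also: TR-FRET signal of purified GST-Vif binding a biotinylated A3G peptide; inhibitors lower the FRET signal by blocking Vif and A3G binding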
[7] = biological target: NS3 (Hepatitis C virus, UniProt A3EZJ3); test: PubChem AID 2173; set-up: species or system Hepacivirus hominis
[8] = test system: HT-1080; test: HT1080 cell viability loss – fluorescence readout (AID 620); format: functional, cell-based; conditions: Homo sapiens
[9] = biological target: T2, Luciferin 4-monooxygenase (Photinus pyralis, UniProt P08659); test: Counter Screen for Luciferase-based Assay Positives. [Related pubchem assays: 620, 618, 411 ]
[10] = biological target: T2, Luciferin 4-monooxygenase; test: inhibition of purified Photinus pyralis luciferase – biochemical, luminescence, dose response (AID 1891)
[11] = Luminescence Cell-Based Dose Confirmation HTS to Identify Inhibitors of Platelet Dense Granule Release. [Related pubchem assays: 1663 (Primary HTS), 1678 (Summary of Project)]; format: functional
[12] = HEK-293T cell viability reduction – luminescence, B-cell screen hits, cytotoxicity control for BCR NF-kB inhibitor project, dose response (AID 489021); format: functional, cell-based;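 also: HEK-293T cells carrying an NF-kB luciferase reporter; cells exposed to compound for about 14 hours before viability readout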
[13] = A Cell Based Secondary Assay To Explore Cytotoxicity of Compounds that Sensitize Mycobacterium Tuberculosis to Beta-Lactam Antibiotics.; format: functional
[14] = biological target: T3, Aminopeptidase N (Plasmodium falciparum FcB1/Columbia, UniProt O96935); test: malaria alanyl aminopeptidase activity blockers – biochemical, fluorogenic H-Leu-NHMec substrate, 1536-well (AID 1445); set-up: species or system Plasmodium falciparum 3D7, 3D7
T3 sequence (O96935 whole entry): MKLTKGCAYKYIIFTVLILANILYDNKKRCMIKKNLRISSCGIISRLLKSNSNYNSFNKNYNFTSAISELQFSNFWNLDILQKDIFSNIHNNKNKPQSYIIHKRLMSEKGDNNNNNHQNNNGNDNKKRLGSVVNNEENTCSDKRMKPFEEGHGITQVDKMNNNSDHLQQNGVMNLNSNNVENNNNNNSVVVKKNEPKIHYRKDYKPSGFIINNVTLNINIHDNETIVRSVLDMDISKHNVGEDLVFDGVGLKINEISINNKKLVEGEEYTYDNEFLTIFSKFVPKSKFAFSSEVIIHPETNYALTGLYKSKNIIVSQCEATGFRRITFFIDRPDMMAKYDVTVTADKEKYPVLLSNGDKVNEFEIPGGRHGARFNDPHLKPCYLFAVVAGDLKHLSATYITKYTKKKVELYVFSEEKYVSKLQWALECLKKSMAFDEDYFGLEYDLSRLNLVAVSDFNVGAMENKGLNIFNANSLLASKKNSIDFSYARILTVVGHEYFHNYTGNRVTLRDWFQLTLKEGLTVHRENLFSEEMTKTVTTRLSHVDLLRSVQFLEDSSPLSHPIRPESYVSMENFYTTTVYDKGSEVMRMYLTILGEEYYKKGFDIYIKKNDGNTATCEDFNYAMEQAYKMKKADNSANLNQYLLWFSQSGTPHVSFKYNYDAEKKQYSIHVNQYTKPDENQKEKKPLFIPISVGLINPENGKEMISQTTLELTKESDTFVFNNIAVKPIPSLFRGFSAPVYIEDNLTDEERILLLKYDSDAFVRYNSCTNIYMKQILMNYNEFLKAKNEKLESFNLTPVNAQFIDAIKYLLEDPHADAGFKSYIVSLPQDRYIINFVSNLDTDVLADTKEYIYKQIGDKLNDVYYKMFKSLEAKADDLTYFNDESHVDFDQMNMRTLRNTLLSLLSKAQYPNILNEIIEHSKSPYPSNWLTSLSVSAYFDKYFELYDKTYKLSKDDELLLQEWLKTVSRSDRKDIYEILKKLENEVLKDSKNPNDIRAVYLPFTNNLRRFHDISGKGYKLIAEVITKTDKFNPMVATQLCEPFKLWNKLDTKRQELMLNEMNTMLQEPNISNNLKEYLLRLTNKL

[15] = fluconazole-exposed Candida albicans growth modulators – fluorescence, retest, confirmation (AID 2467); format: functional, cell-based
[16] = NIH-3T3 fibroblast cytotoxicity, dose response, cytotoxicity control, cell-based, fluorescence, Alamar Blue, secondary assay (AID 2327); format: functional;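 also: NIH-3T3 mouse fibroblasts cultured with fluconazole at 8 µg/mL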
[17] = biological target: Heat shock protein HSP 90-alpha (Homo sapiens, UniProt P07900); format: functional, organism-based
[18] = biological target: T4, Streptokinase A (Streptococcus pyogenes serotype M1, UniProt P10520); test: viability-normalized secreted streptokinase activity reduction – plasminogen activation absorbance, OD405, dose response (AID 1914); format: functional, Streptococcus pyogenes M1 GAS;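 also: secreted streptokinase activity via plasminogen activation per viability signal from cell pellet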
T4 sequence (P10520 whole entry): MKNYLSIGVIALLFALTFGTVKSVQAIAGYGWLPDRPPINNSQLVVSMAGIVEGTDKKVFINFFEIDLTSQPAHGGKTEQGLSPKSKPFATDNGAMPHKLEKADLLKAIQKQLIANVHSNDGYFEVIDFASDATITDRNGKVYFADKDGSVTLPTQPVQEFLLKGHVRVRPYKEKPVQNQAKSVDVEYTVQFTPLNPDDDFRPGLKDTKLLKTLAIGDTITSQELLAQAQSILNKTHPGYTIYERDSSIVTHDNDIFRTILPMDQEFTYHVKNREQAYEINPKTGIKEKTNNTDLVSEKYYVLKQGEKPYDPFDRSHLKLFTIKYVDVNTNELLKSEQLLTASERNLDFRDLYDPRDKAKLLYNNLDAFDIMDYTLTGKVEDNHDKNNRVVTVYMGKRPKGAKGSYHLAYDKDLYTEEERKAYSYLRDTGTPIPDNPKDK

[19] = test system: Streptococcus; test: GAS UMAA2166 growth inhibition – luminescence, BacTiterGlo, counter-screen for streptokinase expression inhibitor project, dose response (AID 1915); format: functional, organism-based;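 also: potency for reduction of bacterial viability or growth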
[20] = test system: Streptococcus sp. 'group A'; test: Streptococcus pyogenes SK(-)GAS viability under kanamycin – luminescence, BacTiterGlo, confirmation, counter-screen for streptokinase expression inhibitor project, dose response (AID 1900); format: functional, organism-based

Sequence of NS3 (A3EZJ3 whole entry): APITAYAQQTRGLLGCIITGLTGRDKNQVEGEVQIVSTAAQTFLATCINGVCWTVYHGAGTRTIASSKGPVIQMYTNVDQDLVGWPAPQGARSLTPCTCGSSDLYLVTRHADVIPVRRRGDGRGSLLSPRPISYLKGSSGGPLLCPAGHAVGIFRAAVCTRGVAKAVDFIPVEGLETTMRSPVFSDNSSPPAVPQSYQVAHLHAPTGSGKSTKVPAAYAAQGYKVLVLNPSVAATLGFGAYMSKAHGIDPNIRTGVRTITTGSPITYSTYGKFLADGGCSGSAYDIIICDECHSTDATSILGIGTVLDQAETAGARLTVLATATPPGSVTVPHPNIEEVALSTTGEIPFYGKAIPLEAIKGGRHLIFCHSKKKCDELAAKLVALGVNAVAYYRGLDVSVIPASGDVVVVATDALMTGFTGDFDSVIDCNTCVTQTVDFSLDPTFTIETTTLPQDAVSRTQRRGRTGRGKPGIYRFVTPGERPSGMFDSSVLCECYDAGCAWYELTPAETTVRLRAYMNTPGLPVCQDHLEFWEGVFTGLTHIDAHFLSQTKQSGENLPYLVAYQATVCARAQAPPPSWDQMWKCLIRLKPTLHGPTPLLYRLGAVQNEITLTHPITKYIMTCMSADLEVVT
T2 sequence (P08659 whole entry): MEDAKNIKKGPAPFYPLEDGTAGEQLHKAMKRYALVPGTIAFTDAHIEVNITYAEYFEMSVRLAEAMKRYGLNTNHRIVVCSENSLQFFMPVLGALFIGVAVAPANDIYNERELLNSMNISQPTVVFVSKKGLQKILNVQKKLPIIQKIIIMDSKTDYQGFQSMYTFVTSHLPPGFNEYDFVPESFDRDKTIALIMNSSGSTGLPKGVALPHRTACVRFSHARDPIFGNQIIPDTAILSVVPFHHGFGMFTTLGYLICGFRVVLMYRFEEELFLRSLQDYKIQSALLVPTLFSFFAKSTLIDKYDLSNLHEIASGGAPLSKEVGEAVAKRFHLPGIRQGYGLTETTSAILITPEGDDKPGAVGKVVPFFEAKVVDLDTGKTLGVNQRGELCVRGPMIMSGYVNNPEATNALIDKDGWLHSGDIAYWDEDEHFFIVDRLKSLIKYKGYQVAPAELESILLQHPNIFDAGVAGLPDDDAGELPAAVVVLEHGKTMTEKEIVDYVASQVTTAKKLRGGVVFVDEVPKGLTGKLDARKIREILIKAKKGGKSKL
Sequence of DNA dC->dU-editing enzyme APOBEC-3A (P31941 whole entry): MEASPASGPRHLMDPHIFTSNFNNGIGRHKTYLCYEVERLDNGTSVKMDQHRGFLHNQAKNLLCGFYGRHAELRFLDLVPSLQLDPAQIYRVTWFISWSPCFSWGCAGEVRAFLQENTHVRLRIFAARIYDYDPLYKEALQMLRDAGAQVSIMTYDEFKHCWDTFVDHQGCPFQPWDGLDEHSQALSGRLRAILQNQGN
Sequence of DNA dC->dU-editing enzyme APOBEC-3G (Q9HC16 whole entry): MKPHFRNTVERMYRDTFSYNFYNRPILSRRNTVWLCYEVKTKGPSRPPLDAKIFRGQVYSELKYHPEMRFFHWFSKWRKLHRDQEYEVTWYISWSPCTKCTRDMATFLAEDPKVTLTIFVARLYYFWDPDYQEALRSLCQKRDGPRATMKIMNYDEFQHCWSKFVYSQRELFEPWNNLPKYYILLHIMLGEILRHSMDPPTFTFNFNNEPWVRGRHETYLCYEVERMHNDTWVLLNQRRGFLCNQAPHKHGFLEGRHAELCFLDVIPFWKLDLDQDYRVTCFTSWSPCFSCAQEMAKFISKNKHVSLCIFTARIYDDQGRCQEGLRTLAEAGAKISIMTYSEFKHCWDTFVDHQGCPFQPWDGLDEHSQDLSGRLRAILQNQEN
Sequence of Large T antigen (P03070 whole entry): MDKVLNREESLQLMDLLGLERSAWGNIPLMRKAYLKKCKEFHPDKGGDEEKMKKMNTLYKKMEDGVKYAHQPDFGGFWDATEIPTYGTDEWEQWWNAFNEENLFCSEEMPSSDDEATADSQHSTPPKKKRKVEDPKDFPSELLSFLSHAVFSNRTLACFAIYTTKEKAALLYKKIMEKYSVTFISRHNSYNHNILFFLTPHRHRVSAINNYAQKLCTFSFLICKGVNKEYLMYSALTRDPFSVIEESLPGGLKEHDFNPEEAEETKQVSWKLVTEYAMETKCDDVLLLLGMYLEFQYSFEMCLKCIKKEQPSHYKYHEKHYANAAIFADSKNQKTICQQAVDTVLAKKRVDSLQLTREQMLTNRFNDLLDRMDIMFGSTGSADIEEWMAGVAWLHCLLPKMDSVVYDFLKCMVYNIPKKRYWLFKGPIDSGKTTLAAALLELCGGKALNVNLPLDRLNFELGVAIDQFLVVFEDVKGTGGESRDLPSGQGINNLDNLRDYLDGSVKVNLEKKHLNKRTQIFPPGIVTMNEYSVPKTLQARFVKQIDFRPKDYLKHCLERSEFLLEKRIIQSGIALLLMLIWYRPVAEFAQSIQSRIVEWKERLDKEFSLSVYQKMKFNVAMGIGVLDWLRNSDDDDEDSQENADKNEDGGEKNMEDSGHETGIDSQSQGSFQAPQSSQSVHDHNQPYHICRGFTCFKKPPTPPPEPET

SMILES: CC(/C=N/n1c(S)nnc1-c1[nH]nc2c1CCC2)=C\c1ccco1
- IC50 [1]: > 100 µM (inactive)
- IC50 [2]: 32.3 µM (active)
- IC50 [3]: 2.29 µM (active)

SMILES: CCc1ccc(-c2cc(C(=O)Nc3ccc(S(=O)(=O)NC(C)=O)cc3)c3ccccc3n2)cc1
- AC50 [4]: 38.6 µM (active)
- IC50 [5]: 7.8 µM (active)
- IC50 [6]: > 100 µM (active)

SMILES: O=C1OC(c2ccco2)=N/C1=C\c1ccc(-c2cccc(C(F)(F)F)c2)o1
- IC50 [7]: 22.1 µM (not active)

SMILES: COc1cccc(C(=O)/C=C/Nc2cccc(O)c2)c1
- EC50 [8]: > 50 µM (not active)
- EC50 [9]: 0.56 µM (active)
- EC50 [10]: 1.38 µM (active)
- EC50 [11]: 2.07 µM (active)

SMILES: Cc1cccn2c(=O)c3cc(C(=O)NC4CCCCC4)c(=N)n(CCN4CCOCC4)c3nc12
- IC50 [12]: > 80 µM (inactive)

SMILES: COc1cc(/C=C/C(=O)OCC(=O)Nc2cc(C)c(C)cc2[N+](=O)[O-])ccc1O
- CC50 [13]: > 40 µM (active)

SMILES: COc1ccc(-c2csc(Nc3ncccc3C)n2)cc1OC
- CC50 [13]: > 40 µM (active)

SMILES: O=C(NCc1ccccc1)c1ccc2c(=O)[nH]c3c(C(=O)NCC4CCCO4)sc(=S)n3c2c1 (stereo not given)
- IC50 [5]: 8.61 µM (active)
- IC50 [14]: 29.2 µM (active)

SMILES: Cc1ccc(/C=C/C(=O)c2ccccc(=O)c2O)c(C)c1
- EC50 [15]: 1.46 µM (active)
- EC50 [16]: > 160 µM (inactive)
- AC50 [17]: 2.05 µM (active)
- EC50 [18]: > 150 µM (not active)
- EC50 [19]: 7.6 µM (active)
- EC50 [20]: 5.22 µM (active)
- IC50 [7]: 2.9 µM (active)

SMILES: COc1ccccc1/C=C/C=N/n1c(S)nnc1-c1ccncc1
- IC50 [1]: > 100 µM (inactive)
- IC50 [3]: 2.21 µM (active)
